Test results taken from patent US11191855B2, “1,7-diaryl-1,6-heptadiene-3,5-dione derivatives, methods for the production and use thereof” (UNIVERSITÄTSKLINIKUM REGENSBURG, priority 2015, dated 2021).
Where a name gives a salt, the structure may show the parent alone. Read-outs that look alike come from different tables or passages of the source.

Columns and labels:
E. coli ATCC 25922 [1] = test: Comparative Example 3: phototoxicity by methods c.1) and c.2); format: cell-based, Escherichia coli; settings: either of the methods c.1) and c.2)
Experimental: (§1) A 2-hour culture was divided into 1800 μL aliquots. After centrifuging at 20° C., 830 rcf, 5 min (5417R centrifuge, Eppendorf, Hamburg, Germany), the pellets were re-suspended in phosphate buffer (Dulbeccos' Modified Phosphate Saline, DPBS, Sigma-Aldrich) with either 10 or 50 μM of the corresponding photosensitizer, wherein the final volume was kept at 1800 μL.
(§2) The irradiation was carried out under constant shaking (MTS4, IKA, Staufen, Germany, 175 rpm) from below on a LED array with maximum homogeneity of the lighting surface. All of the controls were shaken in the same manner. The technical data for the light source are shown in Table 2; the total dose of light applied was 33.8 J/cm^2.
(§3) The determination of the colony forming units (CFU) was carried out in accordance with the method published by Miles and Misra (Miles, A A; Misra, S S, Irwin, J O (1938 Nov.). “The estimation of the bactericidal power of the blood” The Journal of hygiene 38 (6): 732-49). In this regard, serial dilutions (1:10) of the corresponding bacterial suspension were produced in DPBS. 5×10 μL of each bacterial dilution was then dripped onto Todd-Hewitt plates (with broth, additional 1.5% agar (Agar-Agar, Kobe I, Roth, Karlsruhe, Germany) and incubated at 37° C. for 24 h. Next, the number of surviving colony forming units was determined. All of the tests were carried out four times. […]

S. aureus ATCC 25923 [2] = test: as above; format: cell-based, Staphylococcus aureus; settings: either of the methods c.1) and c.2)
Experimental: as §1, §2, §3

[3] = Comparative Example 3: stability and molar extinction coefficient in aqueous solution; format: physicochemical; settings: comparable with natural curcumin
Experimental: In a further test, the stability and phototoxicity of the following compounds were tested.
Incubation with the compound (71) (SACUR-01d) and the bacterial strains S. aureus ATCC 25923 and E. coli ATCC 25922 employed as well as irradiation with electromagnetic radiation and determination of the phototoxicity were carried out as described in sections c.1) and c.2) above. […] The free OH groups contribute greatly to this photo-instability because due to them, the compound can readily transform into the quinoid mesomer, and thus cleavage of one half of the molecule with the formation of ferulic acids or substituted vanillins is facilitated.
Aqueous solution A: distilled water.
Aqueous solution B: isotonic sodium chloride solution (0.9% by weight NaCl).
Aqueous solution C: PBS buffer, pH 7.4 (composition: see Sambrook, J.; Maniatis, T.; Russel, D. W.: Molecular cloning: a laboratory manual. Cold Spring Harbor Laboratory Press; 3rd edition (2001)).

E. coli ATCC 25922 [4] = test: Phototoxicity test c.2) (BlueV light source, emission maximum approx. 420 nm, CFU count); format: cell-based, Escherichia coli; settings: light dose 15.7 J/cm^2, approx. 420 nm, 15 min at 17.5 mW/cm^2, vs reference control
Experimental: A sample of the bacterial cell Staphylococcus. aureus (ATCC number: 25923) or Escherichia. coli (ATCC number: 25922) was removed from a cryo-freeze culture and cultured under aerobic conditions at 37° C. and 175 rpm overnight in an orbital shaker (MAXQ4000, Thermo Scientific, Dubuque, Iowa, USA). Growth was carried out in 20 mL Todd-Hewitt broth (Carl Roth, Karlsruhe, Germany) supplemented with 0.3% of yeast extract (AppliChem, Darmstadt, Germany).
In a second experiment, the photosensitizers (PS) used were dissolved in Millipore water and adjusted to various concentrations. 25 μL of a bacterial suspension grown overnight (˜108/mL) was incubated with 25 μL of photosensitizer solution of the various concentrations at room temperature for 10 seconds in darkness in a 96-well plate.
Next, the suspension was irradiated for 5-20 minutes. For the irradiation, the light source BlueV from Waldmann (Villingen-Schwenningen, Germany) was used, which emits light from 380 to 480 nm (emission maximum at approximately 420 nm). The applied energy density was 17.5 mW/cm^2.
Each experiment was accompanied by three controls in order to exclude side effect of the irradiation/photosensitizer (PS) on the survival of the bacteria: (i) no PS, only light (=light control), (ii) no light, only PS (=dark control) and (iii) neither light nor PS (=reference control). The determination of the colony forming units (CFU) per mL was also carried out in accordance with the method published by Miles, Misra and Irwin described above in section c.1). All of the tests were carried out four times.
The photosensitizers (PS) SACUR-01a, SACUR-03 and SACUR-07 were tested against the bacterial strains S. aureus ATCC 25923 and E. coli ATCC 25922 (FIGS. 21-23). All of the remaining PS were tested against S. aureus ATCC 25923 (FIGS. 24-33). FIGS. 21-33 show the logarithmic reduction after illumination with respect to the reference control.
The average reference control (arithmetic mean with standard deviation) (no light, no PS) was 3.6×10^8/mL for E. coli. The logarithmic reduction after illumination is shown with respect to the reference control.

S. aureus ATCC 25923 [5] = test: as above; format: cell-based, Staphylococcus aureus; settings: for log reduction at 10 µM / log reduction at 50 µM: Staphylococcus aureus, ATCC25923, light or radiation study, 5 min; for log reduction at 10 µM: read-out: Effectiveness against S. aureus: Reduction in CFU in log10 at concentration of 10 μM; for log reduction at 50 µM: read-out: Effectiveness against S. aureus: Reduction in CFU in log10 at concentration of 50 μM
Experimental: A sample of the bacterial cell Staphylococcus. aureus (ATCC number: 25923) or Escherichia. coli (ATCC number: 25922) was removed from a cryo-freeze culture and cultured under aerobic conditions at 37° C. and 175 rpm overnight in an orbital shaker (MAXQ4000, Thermo Scientific, Dubuque, Iowa, USA). Growth was carried out in 20 mL Todd-Hewitt broth (Carl Roth, Karlsruhe, Germany) supplemented with 0.3% of yeast extract (AppliChem, Darmstadt, Germany). In a second experiment, the photosensitizers (PS) used were dissolved in Millipore water and adjusted to various concentrations. 25 μL of a bacterial suspension grown overnight ( 108/mL) was incubated with 25 μL of photosensitizer solution of the various concentrations at room temperature for 10 seconds in darkness in a 96-well plate. Next, the suspension was irradiated for 5-20 minutes. For the irradiation, the light source BlueV from […], Germany) was used, which emits light from 380 to 480 nm (emission maximum at approximately 420 nm). The applied energy density was 17.5 mW/cm^2. Each experiment was accompanied by three controls in order to exclude side effect of the irradiation/photosensitizer (PS) on the survival of the bacteria: (i) no PS, only light (=light control), (ii) no light, only PS (=dark control) and (iii) neither light nor PS (=reference control). […] All of the tests were carried out four times. […] All of the remaining PS were tested against S. aureus ATCC 25923 (FIGS. 24-33). FIGS. 21-33 show the logarithmic reduction after illumination with respect to the reference control. […] The irradiation period was 5 minutes (emission maximum at approximately 420 nm) for an applied intensity of 17.5 mW/cm^2, i.e. an applied light energy (dosage) of 5.3 J/cm^2. The average reference control (arithmetic mean with standard deviation) (no light, no PS) was 3.9×10^8/mL. The logarithmic reduction after illumination is shown with respect to the reference control.

[6] = natural curcumin, background statement; cited from earlier work
[7] = 10 μM, irradiation 5 minutes, approx. 420 nm, 17.5 mW/cm^2, 5.3 J/cm^2, vs reference control
[8] = 50 μM, irradiation 5 minutes, approx. 420 nm, 17.5 mW/cm^2, 5.3 J/cm^2, vs reference control
[9] = irradiation 5 minutes, approx. 420 nm, 17.5 mW/cm^2, 5.3 J/cm^2, vs reference control

For `CN(C)c1ccc(/C=C/C2=CC(=C/C=C3C=CC(=[N+](C)C)C=C3)/O[B-](F)(F)O2)cc1` [CRANAD-2, reference compound], the “Inactivation of E. coli ATCC 25922 upon illumination in the presence of the compound” value (E. coli ATCC 25922 [1]) was “could not be ascertained” and the “Inactivation of S. aureus ATCC 25923 upon illumination in the presence of the compound” value (S. aureus ATCC 25923 [2]) was “could not be ascertained”.
In the case of `Cl.Cl.NCCOc1ccc(/C=C/C(=O)CC(=O)/C=C/c2ccc(OCCN)c(O)c2)cc1O` [Curcumin 01d hydrochloride], the “Inactivation of E. coli ATCC 25922 upon illumination in the presence of the compound” value (E. coli ATCC 25922 [1]) is reported as “Hardly any inactivation”, the “Inactivation of S. aureus ATCC 25923 upon illumination in the presence of the compound” value (S. aureus ATCC 25923 [2]) is reported as “Hardly any inactivation” and the “Stability in aqueous solution” value [3] is reported as “low stability”.
With `CCCCCCCCOc1ccc(/C=C/C(=O)CC(=O)/C=C/c2ccc(OCCCCCCCC)c(OCCN)c2)cc1OCCN.Cl` [Curcumin 07 hydrochloride] the “Effectiveness against E. Coli: Reduction in CFU in log10 at concentration of 10 μM” value (E. coli ATCC 25922 [4]; 10 μM) was over 1 log10, the “Effectiveness against E. Coli: Reduction in CFU in log10 at concentration of 50 μM” value (E. coli ATCC 25922 [4]; 50 μM) was over 4 log10 and the log reduction at 10 µM (S. aureus ATCC 25923 [5]; [7]) was over 2. It also gave a log reduction at 50 µM (S. aureus ATCC 25923 [5]; [8]) of over 5.
For `COc1cc(/C=C/C(=O)C(C)C(=O)/C=C/c2ccc(OCCN)c(OC)c2)ccc1OCCN` [Curcumin 09a hydrochloride], the log reduction at 10 µM (S. aureus ATCC 25923 [5]; [7]) was over 2 and the log reduction at 50 µM (S. aureus ATCC 25923 [5]; [8]) was over 5.
For `COc1ccc(/C=C/C(=O)C(CCN)C(=O)/C=C/c2ccc(OC)c(OC)c2)cc1OC.Cl` [Curcumin 11a hydrochloride], the “Effectiveness against S. aureus: Reduction in CFU in log10 at concentration of 100 μM” value (S. aureus ATCC 25923 [5]; [9]) was over 2 log10, the “Effectiveness against S. aureus: Reduction in CFU in log10 at concentration of 250 μM” value (S. aureus ATCC 25923 [5]; [9]) was over 5 log10 and the log reduction at 50 µM (S. aureus ATCC 25923 [5]; [8]) was over 1.
In the case of `Cl.Cl.NCCOc1ccc2cc(/C=C/C(=O)CC(=O)/C=C/c3ccc4cc(OCCN)ccc4c3)ccc2c1` [Curcumin 12b hydrochloride], the “Effectiveness against S. aureus: Reduction in CFU in log10 at concentration of 100 μM” value (S. aureus ATCC 25923 [5]; [9]) is reported as about 2 log10, the “Effectiveness against S. aureus: Reduction in CFU in log10 at concentration of 250 μM” value (S. aureus ATCC 25923 [5]; [9]) is reported as over 3 log10 and the log reduction at 50 µM (S. aureus ATCC 25923 [5]; [8]) is reported as over 1.
With `COc1ccc(/C=C/C(=O)C(CCN)C(=O)/C=C/c2ccc(OC)c(OCCN)c2)cc1OCCN` [Curcumin 13a hydrochloride] the log reduction at 10 µM (S. aureus ATCC 25923 [5]; [7]) was over 1 and the log reduction at 50 µM (S. aureus ATCC 25923 [5]; [8]) was over 5.
With `COc1cc(/C=C/C(=O)C(C)C(=O)/C=C/c2ccc(OCCN)c(OCCN)c2)ccc1OCCN` (stereo not shown) [Curcumin 13c hydrochloride] the log reduction at 10 µM (S. aureus ATCC 25923 [5]; [7]) was over 1 and the log reduction at 50 µM (S. aureus ATCC 25923 [5]; [8]) was over 5.
With `COc1cc(/C=C(\C)C(=O)CC(=O)/C(C)=C/c2ccc(OCCN)c(OC)c2)ccc1OCCN.Cl.Cl` [Curcumin 14a hydrochloride] the “Effectiveness against S. aureus: Reduction in CFU in log10 at concentration of 100 μM” value (S. aureus ATCC 25923 [5]; [9]) was over 2 log10, the “Effectiveness against S. aureus: Reduction in CFU in log10 at concentration of 250 μM” value (S. aureus ATCC 25923 [5]; [9]) was over 3 log10 and the log reduction at 50 µM (S. aureus ATCC 25923 [5]; [8]) was over 1.
Compound `COc1cc(/C=C/C(=O)CC(=O)/C=C/c2ccc(OCCC[P+](C)(C)C)c(OC)c2)ccc1OCCC[P+](C)(C)C` [Curcumin 15a hydrochloride, 3,3′-(4,4′-((1E,6E)-3,5-dioxohepta-1,6-diene-1,7-diyl)bis(2-methoxy-4,1-phenylene))bis(oxy)bis(trimethylpropan-1-phosphonium) chloride] has a log reduction at 10 µM (S. aureus ATCC 25923 [5]; [7]) of about 1 and a log reduction at 50 µM (S. aureus ATCC 25923 [5]; [8]) of over 5.
`COc1cc(/C=C/C(=O)CC(=O)/C=C/c2ccc(OCCC[P+](c3ccccc3)(c3ccccc3)c3ccccc3)c(OC)c2)ccc1OCCC[P+](c1ccccc1)(c1ccccc1)c1ccccc1` [Curcumin 15b hydrochloride, 3,3′-(4,4′-((1E,6E)-3,5-dioxohepta-1,6-diene-1,7-diyl)bis(2-methoxy-4,1-phenylene))bis(oxy)bis(triphenylpropan-1-phosphonium) chloride] showed a log reduction at 10 µM (S. aureus ATCC 25923 [5]) of over 4 and a log reduction at 50 µM (S. aureus ATCC 25923 [5]) of over 5.
For `COc1cc(C=CC(=O)CC(=O)C=Cc2ccc(O)c(OC)c2)ccc1O` [curcumin, 1,7-bis-(4-hydroxy-3-methoxyphenyl)-1,6-heptadiene-3,5-dione], the Solubility in water [6] is given as “low solubility in water”.
For “(1E,6E)1,7- bis(4-(2- aminoethoxy)-3- methoxy- phenyl)hepta-1,6- diene-3,5-dione hydrochloride BF2 complex [Curcumin 01a BF-complex]”, the “Effectiveness against S. aureus: Reduction in CFU in log10 at concentration of 10 μM” value (S. aureus ATCC 25923 [5]; [7]) was over 5 log10 and the “Effectiveness against S. aureus: Reduction in CFU in log10 at concentration of 50 μM” value (S. aureus ATCC 25923 [5]; [8]) was over 5 log10.
